Assay results: patent US20100093871A1, “AGENT FOR PREVENTION OR TREATMENT OF IRON OVERLOAD DISORDERS” (MEIJI SEIKA KAISHA, LTD., priority 2007, published 2010)

Tested on: serum ferritin
Assay: Serum ferritin in chronic hepatitis C patients after oral administration for 24 weeks
Format: in vivo, human (patients suffering from chronic hepatitis C)
Details: patients with chronic hepatitis C, 50 mg/day or 200 mg/day in two divided doses, CLIA, percentage change vs level before administration
Protocol: To patients suffering from chronic hepatitis C, 22β-methoxyolean-12-ene-3β,24(4β)-diol was orally administered for 24 weeks, at a daily dose of 50 mg/day or 200 mg/day. The administration of 22β-methoxyolean-12-ene-3β,24(4β)-diol in each administration group was carried out by orally administering half of each daily dose twice a day after eating breakfast and dinner. For example, in the 50 mg/day administration group, each day 25 mg of the drug was orally administered after breakfast and 25 mg of the drug was orally administered after dinner. Immediately after the beginning of the administration, and after 2, 4, 8, 12, 16, 20, and 24 weeks from the beginning of the administration, serum samples were collected to determine serum ferritin contained in the samples. […] Serum ferritin was determined by a chemiluminescence immunoassay (CLIA) with reference to a method described in a protocol attached to Chemilumi ACS-Ferritin II (Bayer Medical). Each serum ferritin level contained in each serum sample collected was indicated as percentage, with the serum ferritin level before the administration of 22β-methoxyolean-12-ene-3β,24(4β)-diol regarded as […], and an average and a median of all patients were calculated.

In the case of `CO[C@@H]1CC(C)(C)CC2C3=CCC4[C@@]5(C)CC[C@H](O)[C@](C)(CO)C5CC[C@@]4(C)[C@]3(C)CC[C@]21C` (stereo partly drawn) [22β-methoxyolean-12-ene-3β,24(4β)-diol], the serum ferritin level is reported as “serum ferritin was lowered”.
